Converted amounts (≈) assume the structure as drawn. The source made the active and inactive calls. The calls are words filed in the database; no cut-off is given here.
Legend:
[1] = Solubility of the compound in Milli-Q water at 25 degC; format: physicochemical
[2] = Chemical stability of the compound in 5 mM sodium phosphate buffer containing 10% DMF at pH 7 assessed as half life by HPLC analysis; format: physicochemical
DU-145 = assay: Cytotoxicity against human DU145 cells after 48 hrs; format: functional, cell-based; conditions: DU-145, 48 h
A549 = assay: Cytotoxicity against human A549 cells after 48 hrs; format: functional, cell-based; conditions: A549, 48 h
Nucleic Acid [3] = assay: Induction of 5'-Texas Red-labelled 208-bp DNA alkylation at 5'-ATTCACTA-3' sequence at 25 to 200 nM after 18 hrs followed by quenching with calf thymus DNA by PAGE analysis; format: nucleic-acid assay; conditions: Homo sapiens
Nucleic Acid [4] = assay: Induction of 5'-Texas Red-labelled 208-bp DNA alkylation at 5'-ATTTGTCA-3' sequence at 25 to 200 nM after 18 hrs followed by quenching with calf thymus DNA by PAGE analysis; format: nucleic-acid assay; conditions: Homo sapiens
Nucleic Acid [5] = assay: Induction of 5'-Texas Red-labelled 208-bp DNA alkylation at 5'-AATACTCA-3' sequence at 25 to 200 nM after 18 hrs followed by quenching with calf thymus DNA by PAGE analysis; format: nucleic-acid assay
Nucleic Acid [6] = assay: Induction of 5'-Texas Red-labelled 208-bp DNA alkylation at 5'-TGCATCCA-3' sequence at 25 to 200 nM after 18 hrs followed by quenching with calf thymus DNA by PAGE analysis; format: nucleic-acid assay
Nucleic Acid [7] = assay: Induction of 5'-Texas Red-labelled 208-bp DNA alkylation at 5'-TCCATCCA-3' sequence at 25 to 200 nM after 18 hrs followed by quenching with calf thymus DNA by PAGE analysis; format: nucleic-acid assay; conditions: Homo sapiens
Nucleic Acid [8] = assay: Induction of 5'-Texas Red-labelled 208-bp DNA alkylation at 5'-GTCATCCA-3' sequence at 25 to 200 nM after 18 hrs followed by quenching with calf thymus DNA by PAGE analysis; format: nucleic-acid assay

SMILES	solubility [1]	half-life [2]	IC50 (DU-145)	IC50 (A549)	further results
CC(=O)Nc1cc(C(=O)Nc2cn(C)c(C(=O)NCCC(=O)Nc3cn(C)c(C(=O)Nc4cc(C(=O)Nc5cc(C(=O)NCCCC(=O)Nc6cc(C(=O)Nc7cc(C(=O)Nc8cc(C(=O)Nc9cc(C(=O)Nc%10ccc%11[nH]c(C(=O)N%12CC(CCl)c%13c%12cc(OC(=O)[C@@H](N)CCCCN)c%12ccccc%13%12)cc%11c%10)n(C)c9)n(C)c8)n(C)c7)n(C)c6)n(C)c5)n(C)c4)n3)n2)n(C)c1 (some centres not stated)	1200 µM (≈ 2180 µg/mL)	< 1 h			
CC(=O)Nc1cn(C)c(C(=O)Nc2cc(C(=O)Nc3cc(C(=O)NCCC(=O)Nc4cc(C(=O)NCCCC(=O)Nc5cc(C(=O)NCCC(=O)Nc6cn(C)c(C(=O)Nc7ccc8[nH]c(C(=O)N9CC(CCl)c%10c9cc(O)c9ccccc%109)cc8c7)n6)n(C)c5)n(C)c4)n(C)c3)n(C)c2)n1 (configuration not stated)			0.028 µM	0.051 µM	
COCCNC(=O)Oc1cc2c(c3ccccc13)C(CCl)CN2C(=O)c1cc2cc(NC(=O)c3cc(NC(=O)c4cc(NC(=O)c5cc(NC(=O)c6cc(NC(=O)CCCNC(=O)c7cc(NC(=O)c8cc(NC(=O)c9nc(NC(=O)CCNC(=O)c%10nc(NC(=O)c%11cc(NC(C)=O)cn%11C)cn%10C)cn9C)cn8C)cn7C)cn6C)cn5C)cn4C)cn3C)ccc2[nH]1 (configuration not stated)	180 µM (≈ 323 µg/mL)	3.5 h			
CC(=O)Nc1cc(C(=O)Nc2cn(C)c(C(=O)NCCC(=O)Nc3cn(C)c(C(=O)Nc4cc(C(=O)Nc5cc(C(=O)NCCCC(=O)Nc6cc(C(=O)Nc7cc(C(=O)Nc8cc(C(=O)Nc9cc(C(=O)Nc%10ccc%11[nH]c(C(=O)N%12CC(CCl)c%13c%12cc(O)c%12ccccc%13%12)cc%11c%10)n(C)c9)n(C)c8)n(C)c7)n(C)c6)n(C)c5)n(C)c4)n3)n2)n(C)c1 (configuration not stated)			0.062 µM	0.24 µM	Activity (Nucleic Acid [3]): Active
CC(=O)Nc1cn(C)c(C(=O)Nc2cc(C(=O)Nc3cc(C(=O)NCCC(=O)Nc4cc(C(=O)Nc5cc(C(=O)NCCCC(=O)Nc6cc(C(=O)Nc7cc(C(=O)NCCC(=O)Nc8cn(C)c(C(=O)Nc9ccc%10[nH]c(C(=O)N%11CC(CCl)c%12c%11cc(O)c%11ccccc%12%11)cc%10c9)n8)n(C)c7)n(C)c6)n(C)c5)n(C)c4)n(C)c3)n(C)c2)n1 (configuration not stated)			0.0079 µM	0.029 µM	Activity (Nucleic Acid [4]): Active; Activity (Nucleic Acid [5]): 54%
CC(=O)Nc1cc(C(=O)Nc2cn(C)c(C(=O)NCCC(=O)Nc3cn(C)c(C(=O)Nc4cc(C(=O)Nc5cc(C(=O)NCCCC(=O)Nc6cc(C(=O)Nc7cc(C(=O)Nc8cc(C(=O)Nc9cc(C(=O)Nc%10ccc%11[nH]c(C(=O)N%12CC(CCl)c%13c%12cc(OC(=O)NCCCN(C)C)c%12ccccc%13%12)cc%11c%10)n(C)c9)n(C)c8)n(C)c7)n(C)c6)n(C)c5)n(C)c4)n3)n2)n(C)c1 (configuration not stated)	230 µM (≈ 418 µg/mL)	1.1 h			
CC(=O)Nc1cn(C)c(C(=O)Nc2cn(C)c(C(=O)Nc3cc(C(=O)NCCC(=O)Nc4cn(C)c(C(=O)Nc5cn(C)c(C(=O)NCCCC(=O)Nc6cc(C(=O)Nc7cc(C(=O)NCCC(=O)Nc8cc(C(=O)Nc9ccc%10[nH]c(C(=O)N%11CC(CCl)c%12c%11cc(O)c%11ccccc%12%11)cc%10c9)n(C)c8)n(C)c7)n(C)c6)n5)n4)n(C)c3)n2)n1 (configuration not stated)			0.045 µM	0.24 µM	Activity (Nucleic Acid [6]): 47%; Activity (Nucleic Acid [7]): Active; Activity (Nucleic Acid [8]): 11%
CC(=O)Nc1cn(C)c(C(=O)Nc2cn(C)c(C(=O)Nc3cc(C(=O)Nc4cc(C(=O)NCCCC(=O)Nc5cn(C)c(C(=O)Nc6cn(C)c(C(=O)Nc7ccc8[nH]c(C(=O)N9CC(CCl)c%10c9cc(O)c9ccccc%109)cc8c7)n6)n5)n(C)c4)n(C)c3)n2)n1 (configuration not stated)			0.047 µM	0.135 µM	

Source: ChEMBL document CHEMBL1833826, “Evaluation of PI polyamide conjugates with eight-base pair recognition and improvement of the aqueous solubility by PEGylation” (Bioorg Med Chem, 2011)
